One test deals with T1, human eIF4E protein (Homo sapiens, UniProt P06730).
T1 construct: purchased Novus NBP-45314
The test is described as follows: Biochemical competitive binding assay (TR-FRET competition). The settings on record: recombinant 6xHIS-tagged human eIF4E, EDA-m7GDP-ATTO-647N probe; read-out: hEIF4E TR-FRET IC50. The procedure: The potencies of compounds binding to human eIF4E protein were measured using a 384-well time-resolved fluorescence resonance energy transfer (TR-FRET) competition assay. The assay was performed in assay buffer containing 50 mM HEPES pH 7.5, 100 mM KCl, 0.02% Tween-20, and 0.1 mg/mL bovine serum albumin (BSA). The reaction volume was 10 μL and each reaction contained 4 nM recombinant 6×HIS-tagged human eIF4E protein (Novus, NBP-45314), 5 nM EDA-m7GDP-ATTO-647N (Jena Bioscience, NU-827-647N), 2.5 nM Europium conjugated Anti-6×HIS antibody (PerkinElmer, AD0402) and varying concentrations of compound. The final DMSO concentration was 1%.
Compounds were prepared using 11-point, 4-fold serial dilutions in DMSO and 100 nL of diluted compounds were transferred to 384-well assay-ready plates. Recombinant human eIF4E protein at 2× final concentration (8 nM) was pre-incubated with Eu-anti-6×HIS antibody at 2× final concentration (5 nM) for 5 minutes, then 5 μL of the protein solution was added to assay-ready plates. The protein/compound mix was incubated for 15 minutes, after which 5 μL of a solution containing EDA-m7GDP-ATTO-647N probe at 2× final concentration (10 nM) was added. After a subsequent 15-minute incubation, time-resolved fluorescence of assay plates was measured using a Clariostar Plus microplate reader (BMG Labtech) and TR-FRET values were calculated by taking a ratio of the 665 to 620 wavelength signals. After normalization to the average of DMSO control and maximum inhibition control wells, concentration-response data were plotted and standard 4-parameter curve fitting (PEI Signals) was utilized to determine IC50 values.
For orientation: In TR-FRET formats the signal depends on donor and acceptor labels being close together.

The subject of test [1] is cap-dependent translation in Flp-In-293 reporter cells. The test is described as follows: Cellular cap-dependent translation inhibition dual luciferase assay (DLA). It is filed as cell-based. The note with it: Homo sapiens, ratio of Fluc (cap-dependent) to Rluc (IRES) luminescence, 24 hours of compound treatment.

Data on 31 compounds can be found in patent US20260176277A1, “COMPOUNDS AND COMPOSITIONS AS eIF4E INHIBITORS AND USES THEREOF” (Ribometrix, Inc., priority 2022, published 2026).

Molecules are shown by their SMILES. pIC50: −log10 of the molar value.

T1 sequence (P06730 whole entry): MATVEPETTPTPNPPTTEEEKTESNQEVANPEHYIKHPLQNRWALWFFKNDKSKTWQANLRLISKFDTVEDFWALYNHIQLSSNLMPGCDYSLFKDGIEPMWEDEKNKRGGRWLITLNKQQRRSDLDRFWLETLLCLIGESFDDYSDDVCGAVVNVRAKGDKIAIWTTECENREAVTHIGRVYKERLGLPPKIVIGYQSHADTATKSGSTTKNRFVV

Broadly, the pIC50 is −log10 of the IC50, conventionally taken in molar units. `Cc1nc2c(c(=O)n1CCOc1ccc(Cl)cc1-c1cccc(C(=O)O)c1)CN(C)CC2` [Compound 1]: the pIC50 on human eIF4E protein was more than 6.40.

Consider `Cc1nc2c(c(=O)n1CCOc1ccc(Cl)cc1-c1ccc(C(=O)O)cc1)CN(C)CC2` [Compound 2], for which, on human eIF4E protein, the pIC50 was 4.00 to 5.00.

Turning to `CN1CCc2ncn(CCOc3ccc(Cl)cc3-c3cccc(C(=O)O)c3)c(=O)c2C1` [Compound 3], on human eIF4E protein, the pIC50 was 4.00 to 5.00.

As to `CCN1CCc2nc(C)n(CCOc3ccc(Cl)cc3-c3cccc(C(=O)O)c3)c(=O)c2C1` [Compound 4], the pIC50 in test [1] was 4.70 to 5.00; at human eIF4E protein, more than 6.40.

In the case of `Cc1nc2c(c(=O)n1CCOc1ccc(Cl)cc1-c1cccc(C(=O)O)c1)CN(C1CCOCC1)CC2` [Compound 5], the pIC50 in test [1] is less than 4.70; at human eIF4E protein, 5.00 to 6.40.

In the case of `COCCN1CCc2nc(C)n(CCOc3ccc(Cl)cc3-c3cccc(C(=O)O)c3)c(=O)c2C1` [Compound 6], the negative logarithm of the IC50 (pIC50) on human eIF4E protein is 5.00 to 6.40.

As to `CC(=O)N1CCc2nc(C)n(CCOc3ccc(Cl)cc3-c3cccc(C(=O)O)c3)c(=O)c2C1` [Compound 7], the pIC50 at human eIF4E protein is 5.00 to 6.40.

Consider `Cc1nc2c(c(=O)n1CCOc1ccc(Cl)cc1-c1ccnc3c(C(=O)O)csc13)CN(C)CC2` [Compound 8], for which the pIC50 was more than 5.00 in test [1] and more than 6.40 at human eIF4E protein.

With `Cc1nc2c(c(=O)n1CCOc1ccc(Cl)cc1-c1ccnc(C(=O)O)c1)CN(C)CC2` [Compound 9], the pIC50 in test [1] is less than 4.70; at human eIF4E protein, more than 6.40.

For the compound `COCCN1CCc2nc(C)n(CCOc3ccc(Cl)cc3-c3ccnc(C(=O)O)c3)c(=O)c2C1` [Compound 10], the negative-log IC50 (pIC50) in test [1] was less than 4.70; on human eIF4E protein it was more than 6.40.

Take `Cc1nc2c(c(=O)n1CCOc1ccc(Cl)cc1-c1cccc(C(=O)O)c1)CN(C1COC1)CC2` [Compound 11]: the results for the pIC50 (in test [1]; on human eIF4E protein) were less than 4.70 and 4.00 to 5.00, respectively.

In the case of `Cc1nc2c(c(=O)n1CCOc1ccc(Cl)cc1-c1cccc(C(=O)O)c1F)CN(C)CC2` [Compound 12], the pIC50 in test [1] is less than 4.70; at human eIF4E protein it was more than 6.40.

With `Cc1nc2c(c(=O)n1CCOc1ccc(Cl)cc1-c1ccnc(C(=O)NS(C)(=O)=O)c1)CN(C)CC2` [Compound 13], the pIC50 in test [1] was less than 4.70; at human eIF4E protein it was more than 6.40.

For `Cc1nc2c(c(=O)n1CCOc1ccc(Cl)cc1-c1ccnn3c(C(=O)O)ccc13)CN(C)CC2` [Compound 14], the pIC50 is more than 5.00 in test [1] and more than 6.40 on human eIF4E protein.

`Cc1nc2c(c(=O)n1CCOc1ccc(Cl)cc1-c1ccnc(-c3n[nH]c(=O)o3)c1)CN(C)CC2` [Compound 15]: the results for the pIC50 (in test [1]; on human eIF4E protein) were less than 4.70 and 5.00 to 6.40, respectively.

As for `Cc1nc2c(c(=O)n1CCOc1ccc(Br)cc1-c1cccc(C(=O)O)c1)CN(C)CC2` [Compound 16], the pIC50 in test [1] is less than 4.70; on human eIF4E protein it was more than 6.40.

Take `Cc1nc2c(c(=O)n1CCOc1cnc(Cl)cc1-c1ccnc(C(=O)O)c1)CN(C)CC2` [Compound 17]: the pIC50 in test [1] was less than 4.70; at human eIF4E protein it was 5.00 to 6.40.

Turning to `Cc1cc(-c2cc(Cl)ccc2OCCn2c(C)nc3c(c2=O)CN(c2ccccc2F)CC3)c2scc(C(=O)O)c2n1` [Compound 18], the pIC50 in test [1] was more than 5.00; at human eIF4E protein it was more than 6.40.

On to `Cc1cc(-c2cc(Cl)ccc2OCCn2c(C)nc3c(c2=O)CN(c2cc(F)ccc2F)CC3)c2scc(C(=O)O)c2n1` [Compound 19], for which the pIC50 in test [1] was more than 5.00; on human eIF4E protein it was more than 6.40.

Regarding `Cc1cc(-c2cc(Cl)ccc2OCCn2c(C)nc3c(c2=O)CN(Cc2ccncc2)CC3)c2scc(C(=O)O)c2n1` [Compound 20], the results for the pIC50 (in test [1]; on human eIF4E protein) were more than 5.00 and more than 6.40, respectively.

Turning to `Cc1cc(-c2cc(Cl)ccc2OCCn2c(C)nc3c(c2=O)CN(c2ccnc4ccncc24)CC3)c2scc(C(=O)O)c2n1` [Compound 21], the negative-log IC50 (pIC50) is more than 5.00 in test [1] and more than 6.40 at human eIF4E protein.

As to `Cc1cc(-c2cc(Cl)ccc2OCCn2c(C)nc3c(c2=O)CN(c2ccn4ncnc4c2)CC3)c2scc(C(=O)O)c2n1` [Compound 22], the pIC50 was 4.70 to 5.00 in test [1] and more than 6.40 on human eIF4E protein.

Consider `COc1cc(N2CCc3nc(C)n(CCOc4ccc(Cl)cc4-c4cc(C)nc5c(C(=O)O)csc45)c(=O)c3C2)ccn1` [Compound 23, 7-[5-chloranyl-2-[2-[6-(2-methoxy-4-pyridyl)-2-methyl-4-oxidanylidene-7,8-dihydro-5H-pyrido[4,3-d]pyrimidin-3-yl]ethoxy]phenyl]-5-methyl-thieno[3,2-b]pyridine-3-carboxylic acid; 2,2,2-tris(fluoranyl) acetic acid], for which the pIC50 is more than 5.00 in test [1] and more than 6.40 at human eIF4E protein.

Regarding `Cc1cc(-c2cc(Cl)ccc2OCCn2c(C)nc3c(c2=O)CN(CC(F)(F)F)CC3)c2scc(C(=O)O)c2n1` [Compound 24, 7-[5-chloranyl-2-[2-[2-methyl-4-oxidany-lidene-6-[2,2,2-tris(fluoranyl)ethyl]-7,8-dihydro-5H-pyrido[4,3-d]pyrimidin-3-yl]ethoxy]phenyl]-5-methyl-thieno[3,2-b]pyridine-3-carboxylic acid; 2,2,2-tris(fluoranyl) acetic acid], the pIC50 is more than 5.00 in test [1] and more than 6.40 at human eIF4E protein.

With `Cc1cc(-c2cc(Cl)ccc2OCCn2c(C)nc3c(c2=O)CN(CC(F)(F)F)CC3)c2scc(C(=O)NS(C)(=O)=O)c2n1` [Compound 25, 7-[5-chloranyl-2-[2-[2-methyl-4-oxidanylidene-6-[2,2,2-tris(fluoranyl)ethyl]-7,8-dihydro-5H-pyrdo[4,3-d]pyrimidin-3-yl]ethoxy]phenyl]-5-methyl-N-methylsulfonyl-thieno[3,2-b]pyridine-3-carboxamide; 2,2,2-tris(fluoranyl) acetic acid], the pIC50 was more than 5.00 in test [1] and more than 6.40 on human eIF4E protein.

`Cc1cc(-c2cc(Cl)ccc2OCCn2c(C)nc3c(c2=O)CN(C)CC3)c2ccc(C(=O)O)n2n1` [Compound 26, 4-[5-chloranyl-2-[2-[2,6-di(methyl)-4-oxidanylidene-7,8-dihydro-5H-pyrido[4,3-d]pyrimidin-3-yl]ethoxy]phenyl]-2-methyl-pyrrolo[1,2-b]pyridazine-7-carboxylic acid]: the pIC50 is more than 5.00 in test [1] and more than 6.40 on human eIF4E protein.

With `Cc1cc(-c2cc(Cl)ccc2OCCn2c(C)nc3c(c2=O)CN(C)CC3)c2ccc(C(=O)NS(C)(=O)=O)n2n1` [Compound 27, 4-[5-chloranyl-2-[2-[2,6-di(methyl)-4-oxidanylidene-7,8-dihydro-5H-pyrido[4,3-d]pyrimidin-3-yl]ethoxy]phenyl]-2-methyl-N-methylsulfonyl-pyrrolo[1,2-b]pyridazine-7-carboxamide], the pIC50 is more than 5.00 in test [1] and more than 6.40 on human eIF4E protein.

`Cc1cc(-c2cc(Cl)ccc2OCCn2c(C)nc3c(c2=O)CN(C)CC3)c2scc(C(=O)NS(C)(=O)=O)c2n1` [Compound 28, 7-[5-chloranyl-2-[2-[2,6-di(methyl)-4-oxidanylidene-7,8-dihydro-5H-pyrido[4,3-d]pyrimidin-3-yl]ethoxy]phenyl]-5-methyl-N-methylsulfonyl-thieno[3,2-b]pyridine-3-carboxamide; 2,2,2-tris(fluoranyl)acetic acid]: the figures for the pIC50 (in test [1]; at human eIF4E protein) were more than 5.00 and more than 6.40, respectively.

As to `Cc1cc(-c2cc(Cl)ccc2OCCn2c(C)nc3c(c2=O)CN(C)CC3)c2scc(C(=O)O)c2n1` [Compound 29, 7-[5-chloranyl-2-[2-[2,6-di(methyl)-4-oxidanylidene-7,8-dihydro-5H-pyrido[4,3-d]pyrimidin-3-yl]ethoxy]phenyl]-5-methyl-thieno[3,2-b]pyridine-3-carboxylic acid], the results for the pIC50 (in test [1]; on human eIF4E protein) were more than 5.00 and more than 6.40, respectively.

Take `Cc1cc(-c2cc(Cl)ccc2OCCn2c(C)nc3c(c2=O)CN(C)CCO3)c2scc(C(=O)O)c2n1` [Compound 30, 7-[5-chloranyl-2-[2-[2,6-di(methyl)-4-oxidanylidene-7,8-dihydro-5H-pyrimido[5,4-f][1,4]oxazepin-3-yl]ethoxy]phenyl]-5-methyl-thieno[3,2-b]pyridine-3-carboxylic acid; 2,2,2-tris(fluorenyl) acetic acid]: the pIC50 in test [1] is more than 5.00; at human eIF4E protein, more than 6.40.

Turning to `Cc1nc2c(c(=O)n1CC#Cc1ccc(Cl)cc1-c1ccnc3c(C(=O)O)csc13)CN(C)CC2` [Compound 31], the pIC50 is less than 4.70 in test [1] and 4.00 to 5.00 on human eIF4E protein.
